Consider 1 compound from patent publication US20200368371A1, “DYE-PROTEIN COMPLEX FOR NIR II AND PHOTOACOUSTIC IMAGING” (The Board of Trustees of the Leland Stanford Junior …, priority 2019, published 2020).

Data set [1] is described as follows: Fluorescence intensity at different concentrations of IR-820 in deionized water and PBS. It counts as physicochemical. The method, then:
IR-820 was first dissolved in deionized water, and then added to deionized water or PBS to determine the optimal concentration. […] 10 μM was determined as the concentration for other studies. […] Different HSA: IR-820 ratios were prepared while keeping IR-820 at a constant 10 μM to determine the approximate binding stoichiometry.

A short description of data set [2]: Absorbance spectra in deionized water. Particulars: DI water. It counts as physicochemical.
From the text: Absorbance spectra of IR-820 and complexes were taken on an ultraviolet-visible-NIR Cary 60 spectrometer (Agilent Technologies) with background correction.
A further data set has as its system C57BL/6 mice. Description: In vivo NIR-II imaging of lymphatic system. The method, then: A gentle massage was performed on the injection site for faster diffusion into the lymphatic system.
Before imaging, all mice were anesthetized in a rodent anesthesia machine with 2 L/min O^2 gas mixed with 3% Soflurane. C57BL/6 mice were used for the vascular and lymphatic system NIR-II imaging. […] A gentle massage was performed at the injection site to increase the speed of diffusion into the lymphatic system. […] All groups within the study contained n=3 mice.
All NIR-II images were collected on a two-dimensional InGaAs array NIR-II system (Princeton Instruments). The excitation was provided by an 808 nm diode laser through an optical fiber and collimator. Fluorescence emission was collected with 1000 nm or more than 1000 nm long-pass filters (Thorlabs). A lens set was used to obtain tunable magnifications ranging from 1× (whole body) to 2.5× (high magnification) by changing the relative position of two NIR achromats (75 mm and 200 mm, Thorlabs). Image J software were used for analyzing the images.
The fluorescence measurement was performed to quantify NIR-II fluorescence signal intensity through the Image J software (National Institutes of Health, Bethesda, Md.). The line graphs and Gaussian-fitted FWHM were analysis by origin 8.5 (OriginLab Corporation, Northampton, Mass.).

For data set [3] the following is noted: all light conditions; cited from earlier work.
Setting [4] is: prone position, subcutaneous footpad injection.

With `CC1(C)C(=CC=C2CCCC(C=CC3=[N+](CCCCS(=O)(=O)[O-])c4ccc5ccccc5c4C3(C)C)=C2Cl)N(CCCCS(=O)(=O)[O-])c2ccc3ccccc3c21.[Na+]` [IR-820], the “behaviour in PBS” value in data set [1] was “poor solubility or severe quenching”. In data set [2], this compound yielded an absorbance strong peak of 690 nm and an absorbance weak shoulder of 815 nm. Further, the “identification of the inguinal lymph node” value with C57BL/6 mice (left side, subcutaneous injection) is listed as “failed”. Besides, in the data set with C57BL/6 mice (setting [4]), the “FWHM of lymphatic vessels” value is given as “unmeasurable” and the “SBR of lymphatic vessels” value was found to be 1.33. Besides, the “stability in aqueous solution” value in data set [3] was “greater stability than ICG”.
